Measured values reported in patent US11230535B2, “CFTR regulators and methods of use thereof” (THE REGENTS OF THE UNIVERSITY OF CALIFORNIA, priority 2015, dated 2022).

Tested on: closed mid-jejunal loops of cystic fibrosis mice
Test: In vivo intestinal fluid absorption in closed mid-jejunal loops of CF mice
Set-up: species or system mouse
Conditions: 30 min
Experimental: Mice (wildtype or CF) were given access to 5% dextrose water but not solid food for 24 h before experiments. Mice were anesthetized with isoflurane and body temperature was maintained during surgery at 36-38° C. using a heating pad. A small abdominal incision was made to expose the small intestine, and closed mid-jejunal loops (length 2-3 cm) were isolated by sutures. Loops were injected with 100 μL vehicle alone or 100 μg CFTRact-J027 in vehicle. The abdominal incision was closed with sutures, and mice were allowed to recover from anesthesia. Intestinal loops were removed at 90 min and loop length and weight were measured to quantify fluid secretion. Intestinal absorption was measured in CF mice (to prevent secretion) as described above, except that the loops were removed at 0 or 30 min. Absorption was calculated as 1−(loop weight at 0 min−loop weight at 30 min)/loop weight at 0 min.
In vivo intestinal secretion and absorption. Mice (wildtype or CF) were given access to 5% dextrose water but not solid food for 24 h before experiments. […] Intestinal loops were removed at 90 min and loop length and weight were measured to quantify fluid secretion. Intestinal absorption was measured in CF mice (to prevent secretion) as described above, except that the loops were removed at 0 or 30 min. Absorption was calculated as 1−(loop weight at 0 min−loop weight at 30 min)/loop weight at 0 min.

With `Nc1ccc([N+](=O)[O-])cc1-c1nc2ccccc2n(Cc2ccccc2)c1=O` [CFTRact-J027, 3-(2-amino-5-nitrophenyl)-1-benzylquinoxalin-2(1H)-one] the intestinal fluid absorption was “did not affect intestinal fluid absorption”.
